Numbered stars: 1 amine (or outer) side, 2 acyl side, 3 side chain; on linkers, the order of the positions; unused ones are H or OH. Bridge positions count the residues as written; N and C are the ends. Square brackets hold non-standard residues; d marks the D form. Peptide text beside a SMILES is read from it. I, II: the chains in the order shown. Actinocin(9to1) = Cc1c2oc3c(C)ccc(C(=O)[*:1])c3nc-2c(C(=O)[*:2])c(N)c1=O; NMeV = CN[C@H](C(=O)O)C(C)C; Sar = CNCC(=O)O
Columns and labels:
[1] = target: T1, in vitro translated hap polypeptide (Homo sapiens, UniProt P10826); assay: Hormone-binding assay with in vitro translated hap polypeptide; details: reticulocyte lysate; for specific binding of (125I)-labelled thyroid hormone to in vitro translated hap polypeptide: 0° C., filtration; for binding of (3H)-labelled ligand to in vitro translated hap polypeptide: overnight 0° C., Dextran coated charcoal
T1 construct: made in house; host or cells: rabbit reticulocyte lysate (in vitro translation of T7 transcripts of pCOD20)
T1 sequence (P10826 1-448 isoform P10826-2): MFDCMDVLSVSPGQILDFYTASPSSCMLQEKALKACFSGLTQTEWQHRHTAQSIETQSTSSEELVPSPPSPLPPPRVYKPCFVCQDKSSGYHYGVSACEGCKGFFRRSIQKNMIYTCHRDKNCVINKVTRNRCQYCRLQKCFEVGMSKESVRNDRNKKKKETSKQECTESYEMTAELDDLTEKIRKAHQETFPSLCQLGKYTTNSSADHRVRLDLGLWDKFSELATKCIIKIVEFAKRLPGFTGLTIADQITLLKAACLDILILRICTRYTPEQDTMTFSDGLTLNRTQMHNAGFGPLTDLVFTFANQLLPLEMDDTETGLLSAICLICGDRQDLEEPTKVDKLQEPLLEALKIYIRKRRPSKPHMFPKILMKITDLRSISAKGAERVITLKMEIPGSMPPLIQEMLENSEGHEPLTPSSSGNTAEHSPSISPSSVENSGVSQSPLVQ
Excerpt: The ability to express functional receptors in vitro from cloned c-erbA/steroid receptor genes led to the use of an in vitro translation assay to identify a putative hap ligand.
The coding region of hap was cloned into pTZ18 plasmid vector to allow in vitro transcription with the T7 RNA polymerase and subsequent translation in reticulocyte lysates. More particularly, ^35S-methionine-labelled products synthesized using T7 polymerase-catalysed RNA transcripts were separated on a 12% SDS-polyacrylamide gel, which was fluorographed. (DMSO-PPO). The lanes in FIG. 5 are as follows:
pCOD20 and pCOD14 were linearized with HindIII. Capped mRNA was generated using 5 ug of DNA, 5 uM rNTP, 25 mM DTT, 100 U RNAsin (Promega), 50 U T7 Pol (Genofit) in 40 mM Tris pH 8, 8mM MgCl2, 2 mM spermidine, 50 mM NaCl, in 100 ul at 37° C. Capping was performed by omitting GTP and adding CAP (m^7 G (5′) ppp (5′) G) (Pharmacia) for the 15 first minutes of the reaction.
After at least 2 h of incubation at 0° C., free was separated from bound by filtration through millipore HAWP 02500 filters using 10 ml of ice cold buffer. For testosterone, retinol, retinoic acid 10 ul of lysate were added to 45 lambda of 20 mM Tris pH 7.3, 1 mM EDTA, 50 mM NaCl, 2 mM beta-mercaptoethanol and […], […] or […] (81 ci/mmol; 60 Ci/mmol; 46 Ci/mmol; Amersham). After an overnight incubation at 0° C. free was separated from bound by Dextran coated charcoal (0.5% Norit A−0.05% T70) and centrifugation. All experiments were performed in duplicates and parallel experiments were performed with 100 fold excess corresponding cold hormone.

[2] = tested on: nuclear extracts from HeLa cells; assay: T3 binding positive control with HeLa nuclear extracts
Excerpt: The results were-negative as well when the experiment was repeated with (3H)-retinol, -retinoic acid, and -testosterone, which represent three putative ligands for hap whose receptors have not yet been cloned. Although it cannot excluded that hap may encode a hormone independent transcriptional activator, it is more likely that hap product, i.e. the hap protein, is α receptor for a presently unidentified hormone.

[3] = tested on: RAR β mRNAs in PLC/PRF/5 cells; assay type: cell-based, human
Method: (§1) More particularly, semi-confluent cells were grown for 6 hr in charcoal stripped medium and retinoic acid was then added to the medium at various concentrations (10^−10 M to 10^−6 M) for 4 hr. Control cells were treated with ethanol (E). Northern-blotting was performed as described in connection with FIG. 9, except that 30 μg of total RNA was used.
(§2) Exposure time was 12 hr for the β probe (FIG. 10B, lower panel) and four days for the α probe (FIG. 10B, upper panel).
(§3) Northern-blotting was carried on using 30 ug of total RNA. […] Exposure times were the same as for the experiments in FIG. 10.
(§4) Human tissue samples were obtained from early autopsies and kept at −80° C. prior to extraction. The HEPG 2 and PLC/PRF/5 hepatoma cell-lines were grown in Dulbecco's modified Eagle's medium with 10% fetal calf serum, glutamine, and antibiotics, in 5% CO2.
(§5) The RNA was prepared by the hot phenol procedure (Maniatis et al., 1982). Poly(A)^+ mRNA was prepared by oligo(dT)-cellulose ilchromatography. For Northern-blot analysis, total RNA (30 μg) or poly(A)^+ mRNA (5 μg) was denatured by glyoxal and fractionated on a 1.2% agarose gel (Maniatis et al., 1982). The nucleic acid was transferred to nylon membranes (Amersham) by blotting and attached by UV exposure plus baking.
(§6) The two cDNA inserts were subcloned into M13 and used to generate high specific activity (greater than 10^9 c.p.m./μg) single-stranded probes by elongation of a sequencing primer with ^32P labelled dTTP (3000 Ci/mmol) and unlabelled nucleotides by Klenow polymerase. The resulting double-stranded DNA was digested using a unique site in the vector, fractioned on a urea/acrylamide sequencing gel, and the labelled single-stranded insert electroeluted. These probes (5×10^6 cpm/ml) were hybridized to the filters in 7% (w/v) sodium dodecyl sulfate (SDS), 0.5 M NaPO4 pH 6.5, 1 mM ethylenediaminetetraacetate (EDTA), and 1 mg/ml bovine serum albumin (BSA) at 68° C. overnight. The filters were washed in 1% SDS, 50 mM NaCl, 1 mM EDTA at 68° C. for 10 min and autoradiographed at −70° C. using Kodak XAR films and intensifying screens. A mouse β actin probe was used to rehybridize the filters and check that all lanes contained equal amounts of RNA.
The relative intensity of hybridization signals in Northern-blotting and run-on experiments was estimated using a Hoefer scanning densitometer and the appropriate computer program.

[4] = target: T2, hap-ER chimaeric receptor (Homo sapiens, UniProt P10826, A104S/D127T/F149Y/F89A/G110A/H125P/I121D/K118G/K128N/K94Y/M120N/N119H/N129Q/N133D/N138K/Q146R/Q92N/R113K/R126A/R139S/S103W/S95A/T123M/T136R/V131T/V135N/Y142A); assay: hap-ER chimaera trans-activation of oestrogen-responsive reporter gene (vit-tk-CAT); assay type: cell-based; details: RA at physiological concentrations
T2 construct: expressed in transfected cells
T2 sequence (P10826 1-448 isoform P10826-2 F82A/Q85N/K87Y/S88A/S96W/A97S/G103A/R106K/K111G/N112H/M113N/I114D/T116M/H118P/R119A/D120T/K121N/N122Q/V124T/N126D/V128N/T129R/N131K/R132S/Y135A/Q139R/F142Y): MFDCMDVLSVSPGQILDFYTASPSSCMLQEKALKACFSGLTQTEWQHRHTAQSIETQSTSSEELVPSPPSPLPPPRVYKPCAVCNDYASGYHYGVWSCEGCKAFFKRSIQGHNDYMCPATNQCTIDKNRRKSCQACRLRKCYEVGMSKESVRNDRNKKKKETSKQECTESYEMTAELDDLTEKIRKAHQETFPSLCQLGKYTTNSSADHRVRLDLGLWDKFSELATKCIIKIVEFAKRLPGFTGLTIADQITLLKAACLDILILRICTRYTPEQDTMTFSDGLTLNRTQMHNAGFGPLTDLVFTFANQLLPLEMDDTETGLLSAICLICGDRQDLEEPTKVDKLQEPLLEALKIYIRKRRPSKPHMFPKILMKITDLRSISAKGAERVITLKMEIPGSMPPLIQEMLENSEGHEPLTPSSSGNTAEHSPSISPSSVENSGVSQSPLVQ
Method: To test the possibility that the hap protein might also be a retinoid receptor, a chimaeric receptor was created by replacing the putative DNA binding domain of hap with that of the human oestrogen receptor (ER). The resulting hap-ER chimaera was then tested for its ability to trans-activate an oestrogen-responsive reporter gene (vit-tk-CAT) in the presence of possible receptor ligands. […] See Nature, 332:850-853 (1988).

[5] = tested on: RAR α mRNAs in PLC/PRF/5 cells; assay: Northern blot of RAR α mRNAs in PLC/PRF/5 cells; assay type: cell-based, human; details: RA up to 10^−6 M
Method: as §1, §2, §3, §4
as §5, with “baking. […]” for “baking.”

[6] = tested on: transglutaminase expression in HL60 cells; details: read-out: ED 50 of RA-dependent transglutaminase expression; cited from earlier work
RAR β = details: cited from earlier work
[7] = tested on: RAR β mRNAs in HEPG2 hepatoma cell-line; assay: Northern blot of RAR β mRNAs in HEPG2 cells; assay type: cell-based, human
Method: as §4, §5
as §6, with “The filters were washed in 1% SDS, 50 mM NaCl, 1 mM EDTA at 68° C. for 10 min and autoradiographed at −70° C. using Kodak XAR films and intensifying screens. A mouse β actin probe was used to rehybridize the filters and check that all lanes contained equal amounts of RNA.” left out

N[C@@H](Cc1ccc(Oc2cc(I)c(O)c(I)c2)c(I)c1)C(=O)O [reverse T3, 3,3′, 5′-triiodo-thyronine]
specific binding of (125I)-labelled thyroid hormone to in vitro translated hap polypeptide [1]: No specific fixation

N[C@@H](Cc1cc(I)c(Oc2ccc(O)c(I)c2)c(I)c1)C(=O)O [T3, triiodothyronine]
binding to nuclear extracts from HeLa cells [2]: detected

N[C@@H](Cc1cc(I)c(Oc2cc(I)c(O)c(I)c2)c(I)c1)C(=O)O [T4, thyroxine]
specific binding of (125I)-labelled thyroid hormone to in vitro translated hap polypeptide [1]: No specific fixation

CC1=C(/C=C/C(C)=C/C=C/C(C)=C/CO)C(C)(C)CCC1 [retinol]
binding of (3H)-labelled ligand to in vitro translated hap polypeptide [1]: negative

Cc1c2oc3c(C)ccc(C(=O)N[C@@H]4C(=O)N[C@H](C(C)C)C(=O)N5CCC[C@H]5C(=O)N(C)CC(=O)N(C)[C@@H](C(C)C)C(=O)O[C@@H]4C)c3nc-2c(C(=O)N[C@@H]2C(=O)N[C@H](C(C)C)C(=O)N3CCC[C@H]3C(=O)N(C)CC(=O)N(C)[C@@H](C(C)C)C(=O)O[C@@H]2C)c(N)c1=O [actinomycin D] (I: T[dV]P[Sar][NMeV] / II: T[dV]P[Sar][NMeV]; ester I:1-I:C, II:1-II:C; linker I:N-II:N via Actinocin(9to1))
effect of inhibitor on the RA-induced increase in the levels of RAR β transcripts ([3]; RA 10^−6M, CH 10 μg/ml or AC 5 μg/ml, 4 hr): abolished

C[C@]12CC[C@H]3[C@@H](CCC4=CC(=O)CC[C@@]43C)[C@@H]1CC[C@@H]2O [testosterone]
binding of (3H)-labelled ligand to in vitro translated hap polypeptide [1]: negative

CC1=C(/C=C/C(C)=C/C=C/C(C)=C/C(=O)O)C(C)(C)CCC1 [RA, All-trans-retinoic acid]
inducing the expression of the reporter gene by the hap-ER chimaeric receptor [4]: effective
effect on the level of RAR α mRNAs [5]: no effect
EC50 [6]: 50 nM
RA-induced stimulation of the levels of RAR β mRNAs [7]: 50 fold
latency of induction of RAR β mRNAs ([3]; RA 10^−6 M): one
time after which induction of RAR β mRNAs is complete ([3]; RA 10^−6 M): four
magnitude of the RA-induced upregulation of RAR β mRNAs ([3]; densitometry of Northern blot, 4 hr): 10 fold

Source: patent US7622266B2, “Identification of a synthetic ligand for retinoic acid receptor beta” (Institut Pasteur, priority 1987, dated 2009)
